Values of other authors in EP1147779A1, “A method for rendering ursodeoxycholic acid in soluble form pharmaceutical compositions” (BIOPROGRESS S.p.A., priority 2000, dated 2001).

Legend:
[1] = ursodeoxycholic acid as such; background statement

Molecule | solubility [1] | toxicity (general statement, allowed by FAO/WHO as food additive) | passage of the intestinal mucosa / presence in plasma and urine (oral administration to humans)
C[C@H](CCC(=O)O)[C@H]1CC[C@H]2[C@@H]3[C@@H](O)C[C@@H]4C[C@H](O)CC[C@]4(C)[C@H]3CC[C@]12C [Ursodeoxycholic acid] | practically insoluble | – | –
β-cyclodextrin | – | no toxicity | does not overcome the barrier of the intestinal mucosa and is not found either in plasma or in urine
